{"source": "paper PMC10112504", "about": "“Novel 4-thiophenyl-pyrazole, pyridine, and pyrimidine derivatives as potential antitumor candidates targeting both EGFR and VEGFR-2; design, synthesis, biological evaluations, and in silico studies” (RSC Advances, 2023)", "key": {"HepG-2": {"test_system": "HepG-2", "assay": "Anti-proliferative activity, SRB colorimetric assay", "format": "cell-based", "conditions": "HepG-2 cancer cell line, SRB assay, read-out: Cell lines (IC50 μM) HepG-2", "experimental": "(§1) The antitumor activities of the newly synthesized derivatives against two cancer cell lines (HepG-2 and MCF-7). Both cell lines were purchased from ATCC (American Type Culture Collection) via the holding company for biological products and vaccines (VACSERA, Cairo, Egypt). The cytotoxicity was assessed using the SRB colorimetric assay.[47]"}, "MCF-7": {"test_system": "MCF-7", "assay": "Anti-proliferative activity, SRB colorimetric assay", "format": "cell-based", "conditions": "Homo sapiens, MCF7; MCF-7 cancer cell line, SRB assay; read-out: Cell lines (IC50 μM) MCF-7", "experimental": "as §1"}, "C. albicans": {"test_system": "C. albicans", "assay": "Antifungal activity, inhibition zone approach", "format": "cell-based, Candida albicans", "conditions": "for C. albicans Diameter of inhibition zone (mm): Fungi; for C. albicans % Activity index: ketoconazole = 100; for antimicrobial activity with C. albicans, in words: authors' grading of Table 2 values, key not given"}, "A. flavus": {"test_system": "A. flavus", "assay": "Antifungal activity, inhibition zone approach", "format": "cell-based, Aspergillus flavus", "conditions": "for A. flavus Diameter of inhibition zone (mm): Fungi; for antimicrobial activity with A. flavus, in words: authors' grading of Table 2 values, key not given"}, "P. aeuroginosa": {"test_system": "P. aeuroginosa", "assay": "Antibacterial activity, inhibition zone approach", "format": "cell-based, Pseudomonas aeuroginosa", "conditions": "for P. aeuroginosa Diameter of inhibition zone (mm): Gram-negative bacteria; for antimicrobial activity with P. aeuroginosa, in words: authors' grading of Table 2 values, key not given; for P. aeuroginosa % Activity index: gentamicin = 100"}, "B. subtilis": {"test_system": "B. subtilis", "assay": "Antibacterial activity, inhibition zone approach", "format": "cell-based, Bacillus subtilis", "conditions": "for B. subtilis Diameter of inhibition zone (mm): Gram-positive bacteria; for antimicrobial activity with B. subtilis, in words: authors' grading of Table 2 values, key not given; for B. subtilis % Activity index: gentamicin = 100"}, "E. coli": {"test_system": "E. coli", "assay": "Antibacterial activity, inhibition zone approach", "format": "cell-based, Escherichia coli", "conditions": "for E. coli Diameter of inhibition zone (mm): Gram-negative bacteria; for antimicrobial activity with E. coli, in words: authors' grading of Table 2 values, key not given"}, "S. aureus": {"test_system": "S. aureus", "assay": "Antibacterial activity, inhibition zone approach", "format": "cell-based, Staphylococcus aureus", "conditions": "for S. aureus Diameter of inhibition zone (mm): Gram-positive bacteria; for antimicrobial activity with S. aureus, in words: authors' grading of Table 2 values, key not given"}}, "note": "Where two headings read alike, the source gives them in different places.", "data": [{"smiles": "O=C(/C=C/c1cccs1)c1ccc(O)cc1", "note": "[1a, (E)-1-(4-hydroxyphenyl)-3-(thiophen-2-yl)prop-2-en-1-one]", "values": [{"measurement": "IC50", "setting": "HepG-2; Homo sapiens, HepG2", "result": "87.6 ± 4.2", "unit": "µM"}, {"measurement": "IC50", "setting": "MCF-7", "result": "82.5 ± 4.2", "unit": "µM"}, {"measurement": "C. albicans Diameter of inhibition zone (mm)", "setting": "C. albicans", "result": 3, "unit": "mm"}, {"measurement": "C. albicans % Activity index", "setting": "C. albicans", "result": 10.7, "unit": "%"}]}, {"smiles": "O=C(/C=C/c1cccs1)c1ccc(Cl)c(Cl)c1", "note": "[1b, (E)-1-(3,4-dichlorophenyl)-3-(thiophen-2-yl)prop-2-en-1-one]", "values": [{"measurement": "IC50", "setting": "HepG-2; Homo sapiens, HepG2", "result": "84.2 ± 4.2", "unit": "µM"}, {"measurement": "IC50", "setting": "MCF-7", "result": "> 100", "unit": "µM"}, {"measurement": "melting point", "result": 85, "unit": "°C"}]}, {"smiles": "N#Cc1c(-c2cccs2)cc(-c2ccc(Cl)c(Cl)c2)nc1N", "note": "[2b, 2-Amino-6-(3,4-dichlorophenyl)-4-(thiophen-2-yl)nicotinonitrile]", "values": [{"measurement": "IC50", "setting": "HepG-2; Homo sapiens, HepG2", "result": "59.5 ± 3.1", "unit": "µM"}, {"measurement": "IC50", "setting": "MCF-7", "result": "55.5 ± 3.2", "unit": "µM"}, {"measurement": "A. flavus Diameter of inhibition zone (mm)", "setting": "A. flavus", "result": 10, "unit": "mm"}, {"measurement": "antimicrobial activity with A. flavus, in words", "setting": "A. flavus", "result": "moderate"}, {"measurement": "P. aeuroginosa Diameter of inhibition zone (mm)", "setting": "P. aeuroginosa", "result": 11, "unit": "mm"}, {"measurement": "antimicrobial activity with P. aeuroginosa, in words", "setting": "P. aeuroginosa", "result": "strong"}, {"measurement": "B. subtilis Diameter of inhibition zone (mm)", "setting": "B. subtilis", "result": 14, "unit": "mm"}, {"measurement": "antimicrobial activity with B. subtilis, in words", "setting": "B. subtilis", "result": "strong"}, {"measurement": "C. albicans Diameter of inhibition zone (mm)", "setting": "C. albicans", "result": 17, "unit": "mm"}, {"measurement": "antimicrobial activity with C. albicans, in words", "setting": "C. albicans", "result": "strong"}, {"measurement": "E. coli Diameter of inhibition zone (mm)", "setting": "E. coli", "result": 8, "unit": "mm"}, {"measurement": "antimicrobial activity with E. coli, in words", "setting": "E. coli", "result": "moderate"}, {"measurement": "S. aureus Diameter of inhibition zone (mm)", "setting": "S. aureus", "result": 9, "unit": "mm"}, {"measurement": "antimicrobial activity with S. aureus, in words", "setting": "S. aureus", "result": "moderate"}]}, {"smiles": "Nc1nc(-c2ccc(O)cc2)cc(-c2cccs2)n1", "note": "[11a, 4-(2-amino-6-(thiophen-2-yl)pyrimidin-4-yl)phenol]", "values": [{"measurement": "IC50", "setting": "HepG-2; Homo sapiens, HepG2", "result": "52.9 ± 2.9", "unit": "µM"}, {"measurement": "IC50", "setting": "MCF-7", "result": "61.1 ± 3.4", "unit": "µM"}, {"measurement": "A. flavus Diameter of inhibition zone (mm)", "setting": "A. flavus", "result": 7, "unit": "mm"}, {"measurement": "antimicrobial activity with A. flavus, in words", "setting": "A. flavus", "result": "weak"}, {"measurement": "P. aeuroginosa Diameter of inhibition zone (mm)", "setting": "P. aeuroginosa", "result": 11, "unit": "mm"}, {"measurement": "antimicrobial activity with P. aeuroginosa, in words", "setting": "P. aeuroginosa", "result": "moderate"}, {"measurement": "B. subtilis Diameter of inhibition zone (mm)", "setting": "B. subtilis", "result": 10, "unit": "mm"}, {"measurement": "antimicrobial activity with B. subtilis, in words", "setting": "B. subtilis", "result": "moderate"}, {"measurement": "C. albicans Diameter of inhibition zone (mm)", "setting": "C. albicans", "result": 11, "unit": "mm"}, {"measurement": "antimicrobial activity with C. albicans, in words", "setting": "C. albicans", "result": "moderate"}, {"measurement": "E. coli Diameter of inhibition zone (mm)", "setting": "E. coli", "result": 6, "unit": "mm"}, {"measurement": "antimicrobial activity with E. coli, in words", "setting": "E. coli", "result": "very strong"}, {"measurement": "S. aureus Diameter of inhibition zone (mm)", "setting": "S. aureus", "result": 7, "unit": "mm"}, {"measurement": "antimicrobial activity with S. aureus, in words", "setting": "S. aureus", "result": "moderate"}]}, {"smiles": "Oc1ccc(-c2cc(-c3cccs3)n(-c3nc4nc5ccccc5nc4s3)n2)cc1", "note": "[12a, 4-(1-(thiazolo[4,5-b]quinoxalin-2-yl)-5-(thiophen-2-yl)-1H-pyrazol-3-yl)phenol]", "values": [{"measurement": "IC50", "setting": "HepG-2; Homo sapiens, HepG2", "result": "74.7 ± 3.9", "unit": "µM"}, {"measurement": "IC50", "setting": "MCF-7", "result": "65 ± 3.6", "unit": "µM"}, {"measurement": "melting point", "result": "250 to 252", "unit": "°C"}, {"measurement": "P. aeuroginosa Diameter of inhibition zone (mm)", "setting": "P. aeuroginosa", "result": 3, "unit": "mm"}, {"measurement": "P. aeuroginosa % Activity index", "setting": "P. aeuroginosa", "result": 15.8, "unit": "%"}, {"measurement": "B. subtilis Diameter of inhibition zone (mm)", "setting": "B. subtilis", "result": 5, "unit": "mm"}, {"measurement": "B. subtilis % Activity index", "setting": "B. subtilis", "result": 22.7, "unit": "%"}, {"measurement": "C. albicans Diameter of inhibition zone (mm)", "setting": "C. albicans", "result": 6, "unit": "mm"}, {"measurement": "C. albicans % Activity index", "setting": "C. albicans", "result": 21.4, "unit": "%"}]}, {"smiles": "Oc1ccc(C2=NN(C(=S)Nc3ccccc3)C(c3cccs3)C2)cc1", "note": "(stereo not shown) [14a, 3-(4-hydroxyphenyl)-N-phenyl-5-(thiophen-2-yl)-4,5-dihydro-1H-pyrazole-1-carbothioamide]", "values": [{"measurement": "melting point", "result": "245 to 247", "unit": "°C"}]}, {"smiles": "COc1cccc2c1C(=O)c1c(O)c3c(c(O)c1C2=O)C[C@@](O)(C(=O)CO)C[C@@H]3O[C@H]1C[C@H](N)[C@H](O)[C@H](C)O1", "note": "[DOX, reference compound]", "values": [{"measurement": "IC50", "setting": "HepG-2", "result": "4.5 ± 0.2", "unit": "µM"}]}, {"smiles": "CNC(C)C1CCC(N)C(OC2C(N)CC(N)C(OC3OCC(C)(O)C(NC)C3O)C2O)O1", "note": "(stereo not shown) [Gentamicin, reference compound]", "values": [{"measurement": "P. aeuroginosa Diameter of inhibition zone (mm)", "setting": "P. aeuroginosa", "result": 19, "unit": "mm"}, {"measurement": "P. aeuroginosa % Activity index", "setting": "P. aeuroginosa", "result": 100, "unit": "%"}, {"measurement": "B. subtilis Diameter of inhibition zone (mm)", "setting": "B. subtilis", "result": 22, "unit": "mm"}, {"measurement": "B. subtilis % Activity index", "setting": "B. subtilis", "result": 100, "unit": "%"}, {"measurement": "E. coli Diameter of inhibition zone (mm)", "setting": "E. coli", "result": 21, "unit": "mm"}, {"measurement": "E. coli % Activity index", "setting": "E. coli; gentamicin = 100", "result": 100, "unit": "%"}, {"measurement": "S. aureus Diameter of inhibition zone (mm)", "setting": "S. aureus", "result": 18, "unit": "mm"}, {"measurement": "S. aureus % Activity index", "setting": "S. aureus; gentamicin = 100", "result": 100, "unit": "%"}]}, {"smiles": "CC(=O)N1CCN(c2ccc(OCC3COC(Cn4ccnc4)(c4ccc(Cl)cc4Cl)O3)cc2)CC1", "note": "(stereo not shown) [Ketoconazole, reference compound]", "values": [{"measurement": "A. flavus Diameter of inhibition zone (mm)", "setting": "A. flavus", "result": 26, "unit": "mm"}, {"measurement": "A. flavus % Activity index", "setting": "A. flavus; ketoconazole = 100", "result": 100, "unit": "%"}, {"measurement": "C. albicans Diameter of inhibition zone (mm)", "setting": "C. albicans", "result": 28, "unit": "mm"}, {"measurement": "C. albicans % Activity index", "setting": "C. albicans", "result": 100, "unit": "%"}]}]}
